Key:
PC12 cells [1] = assay: Neurite outgrowth of PC12 cells; type: cell-based; settings: NT-3 alone
Procedure: PC12 cells were grown as described earlier [Kaplan et al., 1990, 1991a, b]. To assess effects on neurite outgrowth, cells were incubated for 48 hours with K-252b (50 nM) and NT-3 or NGF (50 ng/ml). Neurites were scored if they were a length of one cell body or more.
(§1) Experiments on PC12 cells confirmed observations made on primary neuron cultures. Treatment with K-252b stimulated NT-3 induced neurite outgrowth and trk tyrosine phosphorylation in PC12 cells while inhibiting NGF induced effects. PC12 cells were incubated for 48 hours with K-252b (50 nM) and NT-3 or NGF (50 ng/ml). FIG. 4A illustrates the % cells with neurites after 48 hours incubation. Neurites were scored if they were a length of one cell body or more. PC12 cells were subsequently lysed and immunoprecipitated with anti-trk serum. trk proteins were subjected to SDS-PAGE and analyzed by immunoblotting with anti-phosphotyrosine antibodies (FIG. 4B). Lane 1, NT-3 +K-252b; lane 2, NT-3; lane 3, NGF +K-252b; lane 4, NGF. For FIG. 4C, PC12 cells were incubated for 1 hour in K-252b (50 nM or 10 μM) and with NT-3 or NGF for 5 minutes prior to lysis; other methods were the same as described for FIG. 4B. Lane 1, NT-3+10 μM K-252b; lane 2, NT-3±50 nM K-252b; lane 3, NT-3; lane 4, NGF+10 μM K-252b; lane 5, NGF+50 nM K-252b; lane 6, NGF; lane 7, untreated control.

[2] = system: midbrain dopaminergic neurons (cultures of ventral mesencephalon); assay: Dopamine uptake in primary cultures of fetal rat ventral mesencephalon; type: cell-based; settings: for trophic action on dopaminergic neurons (dopamine uptake): growth factor alone
Procedure: (§2) Primary cultures of fetal rat brain septal and mesencephalic cells were prepared in a heretofore known manner [Knusel et al., supra]. Briefly, defined areas were dissected from fetal rat brains (Wistar, E15-16, Charles River, Mass.). The septal area contained the cholinergic neurons from septum, diagonal band of Broca and nucleus basalis. The ventral mesencephalon containing the dopaminergic neurons of the substantia nigra and the ventral tegmental area was dissected and dissociated mechanically. The cells were plated in 16 mm multiwell plates precoated with polyethyleneimine (1 mg/ml, 37° C., overnight), containing 0.5 ml modified L-15 medium supplemented with 5% heat inactivated horse serum and 0.5% heat inactivated fetal calf serum. Modified L-15 was prepared [Knusel et al., "Selective and Nonselective Stimulation of Central Cholinergic and dopaminergic Development in vitro by Nerve Growth Factor, Basic Fibroblast Growth Factor, Epidermal Growth Factor, Insulin and the Insulin-like Growth Factors I and II," J. Neurosci. 10:558-570 (1990)] by adding various amino acids, vitamins, antibiotics, glucose and NaHCO3 to Leibovitz's L-15 medium (Gibco, Grand Island, N.Y.). Plating densities were 4×10^5 cells/cm^2 for basal forebrain cultures and 3×10^5 cells/cm^2 for mesencephalic cultures. Of these cells, 0.5 to 1% were cholinergic or dopaminergic, respectively. Growth factors were typically added on the second day of culture and the cells were grown for 5 or more days. For ChAT assays tissue was homogenized in 250 μl of 50 mM Tris-HCl buffer, pH 6.0 with 0.3% Triton X-100. [1-^14 C]acetylcoenzyme A (NEN) concentration was 20 μM and specific activity 4.09 Ci/mol. To measure dopamine uptake, cultures were preincubated for 5 min at 37° C. with 250 μl incubation solution (5 mM glucose, 1 mM ascorbic acid in PBS) containing 1 mM pargyline. [^3 H]dopamine (37 Ci/mmol) was then added to give a final concentration of 50 nM and the cultures were incubated for another 15 minutes. Blanks were obtained by incubating cells at 0° C.
In Table 1, dopamine uptake is given as fmol/min/culture dish. Cultures were grown in 24-well plates for 7 days in L-15 medium with 5% horse and 0.5% fetal bovine serum and treated with growth factors and K-252b from the second day of culture. rhBDNF, 200 ng/ml; des-IGF-1, 1 μg/ml; n=4; *different from respective control group, p <0.01 (Student's t-test). The apparent difference between control cultures grown in presence and absence of K-252b was statistically not significant. The experiment shown is a representative case of a total of 5 independent experiments.

[3] = system: chick dorsal root ganglia neurons (DRG); assay: Survival of dissociated chick DRG neurons (embryonic day 9); type: cell-based; settings: growth factor alone, embryonic day 9 DRG cultures
Procedure: DRGs of embryonic day 9 chicks were dissected and dissociated using enzymatic and mechanical procedures as described in the literature [Rosenthal, A. et al., "Primary Structure and Biological Activity of a Novel Human Neurotrophic Factor," Neuron 4:767-773 (1990)]. 1800 neurons were plated per well in 96-well tissue culture plates pretreated with polyornithine (500 μg/ml) and laminin (10 μg/ml). Cells were incubated for 48 hrs with or without growth factors and the indicated concentrations of K-252b. Phase-bright cells with elaborated neurites 5× the diameter of the cell bodies were then counted.
Similar to the findings obtained in primary cultures of brain cholinergic neurons, low concentration of K-252b (50 nM) potentiated the survival promoting action of a maximally effective concentration of NT-3 (FIG. 3). Survival of dissociated chick DRG neurons in presence of rhNGF (100 ng/ml) or rhNT-3 (100 ng/ml) and K-252b is illustrated in FIG. 3; concentrations on the horizontal axis are for K-252b. The columns represent means +SEMs. […] High concentrations of K-252b (10 μM) inhibited the action of NGF on sensory neurons, as found for cholinergic neurons (FIG. 3).

[4] = system: forebrain cholinergic neurons (cultures of rat basal forebrain); assay: ChAT activity in primary cultures of fetal rat basal forebrain (septal) cholinergic neurons treated with neurotrophins and K-252 compounds; type: cell-based; settings: for ED50, stimulation of ChAT activity: mean±S.E., n=8; for NT-3 potentiation (ChAT, cholinergic neurons): 200 ng/ml NT-3 and increasing concentrations of compound (FIG. 6)
Procedure: Recombinant human NGF (rhNGF), BDNF (rhBDNF), and NT-3 (rhNT-3) and K-252b were added to primary cultures of fetal rat brain neurons containing either forebrain cholinergic or midbrain dopaminergic neurons. A broad range of concentrations of K-252b were tested in presence of 50 ng/ml rhNGF, 200 ng/ml rhBDNF and 1 μg/ml rhNT-3, growth factor concentrations producing maximal trophic actions on cholinergic neurons. The trophic action was monitored by measuring the activity of ChAT, a parameter reflecting both survival and transmitter-specific differentiation of cholinergic cells.
as §2
FIG. 1 illustrates levels of ChAT activity in cultures of rat basal forebrain treated with rhNGF, rhBDNF, or rhNT- and K-252b. Growth factors were added on the second day of culture and the cells were grown for 5 days. Growth factor concentrations producing maximal elevations of ChAT activity were used. In FIG. 1, .largecircle. represents the control; .quadrature., 50 ng/ml rhNGF; Δ, 200 ng/ml rhBDNF; and .tangle-soliddn., 1 μg/ml rhNT-3. The ChAT stimulation mediated by all three neurotrophins was inhibited by K-252b at concentrations above 200 nM. […] N=4 per data point. Error bars represent SEMs and were omitted where they would have appeared smaller than the symbol.
These compounds were accordingly tested for possible NT-3 potentiation at lower concentrations than necessary for NGF inhibition. Culture conditions were as described in Example 1. Cultures were untreated (controls) or treated with 200 ng/ml NT-3 and increasing concentrations of the inhibitors. The findings are shown in FIG. 6, in which "Stau", "K2a", "K2b", "K57", "K58", "K59" represent, respectively, staurosporine, K-252a, K-252b, KT5720, KT5823, and KT5296. […] Staurosporine and KT5296 were ineffective.

trk = trk tyrosine phosphorylation in PC12 cells (immunoprecipitation, anti-phosphotyrosine immunoblot); type: cell-based
Procedure: To measure the status of trk tyrosine phosphorylation, PC12 cells were lysed and immunoprecipitated with anti-trk serum. The trk proteins were subjected to 7.5% SDS-PAGE and analyzed by immunoblotting with anti-phosphotyrosine antibodies as described in detail in the literature [Kaplan, D. R. et al., "PDGF beta receptor stimulates tyrosine phosphorylation of GAP and association of GAP with a signaling complex," Cell 61:125-133 (1990)]. Tyrosine phosphorylation of cellular proteins was assayed by probing Western blots of lysates of PC12 cells incubated with K-252b and NT-3 or NGF with anti-phosphotyrosine antibodies. Phospholipase C gammal was identified in these blots as described elsewhere [Vetter, M.L. et al., "Nerve growth factor rapidly stimulates tyrosine phosphorylation of phospholipase C-gammal by a kinase activity associated with the product of trk protooncogene," Proc. Natl Acad. Sci. USA 88:5650-5654 (1991)].
as §1

Cytotoxicity in vitro = type: cell-based
PC12 cells [5] = settings: cited from earlier work
[6] = system: PC12 pheochromocytoma cells; settings: into neuron-like cells; cited from earlier work
[7] = system: phosphorylation of selected proteins; settings: cited from earlier work

NT-3: recombinant human neurotrophin-3
neurite outgrowth induced by growth factor alone (PC12 cells [1]): low levels | trophic action on dopaminergic neurons (dopamine uptake) [2]: not | promotion of neuronal survival [3]: moderate effect | ED50, stimulation of ChAT activity ([4]; NT-3 + 50 nM K-252b): 0.0143 ± 0.0016 µg/mL | ED50, stimulation of ChAT activity ([4]; NT-3 alone): 0.175 ± 0.0726 µg/mL | elevation of ChAT activity relative to the NGF-induced elevation ([4]; NT-3 by itself): approximately 20% | trk tyrosine phosphorylation by growth factor alone (trk; 48 hours): no phosphorylation was detectable | trk tyrosine phosphorylation by growth factor alone (trk; acute, 5 minutes): minimal

CN[C@@H]1C[C@H]2O[C@@](C)([C@@H]1OC)n1c3ccccc3c3c4c(c5c6ccccc6n2c5c31)C(=O)NC4 [staurosporine, reference compound]
cytotoxicity (Cytotoxicity in vitro): cytotoxic | NT-3 potentiation (ChAT, cholinergic neurons) [4]: ineffective | selective inhibition of NGF ([4]; central cholinergic neurons): selectively inhibit NGF

COC(=O)C1(OC)CC2OC1(C)n1c3ccccc3c3c4c(c5c6ccccc6n2c5c31)C(=O)N(C)C4 (stereo not drawn) [KT5823]
NT-3 potentiation (ChAT, cholinergic neurons) [4]: potentiation similar to K-252b

COC(=O)C1(O)CC2OC1(C)n1c3ccccc3c3c4c(c5c6ccccc6n2c5c31)C(=O)NC4 (stereo not drawn) [K-252a]
effect on binding of 125I-NGF to PC12 cells (PC12 cells [5]): does not interfere | cytotoxicity (Cytotoxicity in vitro): cytotoxic | effect on NGF induced morphological transformation of PC12 cells [6]: prevents | effect on NGF stimulated phosphorylation of selected proteins ([7]; NGF stimulated): inhibits | effect on bFGF or EGF stimulated phosphorylation of selected proteins ([7]; bFGF or EGF stimulated): not | NT-3 potentiation (ChAT, cholinergic neurons) [4]: potentiation similar to K-252b | effect on trophic action of NGF on cholinergic neurons (ChAT) ([4]; relatively high dosages): completely and selectively prevent

NGF: recombinant human nerve growth factor
trophic action on dopaminergic neurons (dopamine uptake) [2]: not | promotion of neuronal survival [3]: most effective | trk tyrosine phosphorylation by growth factor alone (trk; 48 hours): strongly stimulated | trk tyrosine phosphorylation by growth factor alone (trk; acute, 5 minutes): pronounced increase

CCCCCCOC(=O)C1(O)CC2OC1(C)n1c3ccccc3c3c4c(c5c6ccccc6n2c5c31)C(=O)NC4 (stereo not drawn) [KT5720]
NT-3 potentiation (ChAT, cholinergic neurons) [4]: potentiation similar to K-252b

B1: rhBDNF: recombinant human brain-derived neurotrophic factor (protein, UniProt P23560 19-247, looked up)
Neurotrophic factor BDNF …: APMKEANIRGQGGLAYPGVRTHGTLESVNGPKAGSRGLTSLADTFEHVIEELLDEDQKVRPNEENNKDADLYTSRVMLSSQVPLEPPLLFLLEEYKNYLDAANMSMRVRRHSDPARRGELSVCDSISEWVTAADKKTAVDMSGGTVTVLEKVPVSKGQLKQYFYETKCNPMGYTKEGCRGIDKRHWNSQCRTTQSYVRALTMDSKKRIGWRFIRIDTSCVCTLTIKRGR
Dopamine uptake, % of Control ([2]; No K-252b, rhBDNF 200 ng/ml or des-IGF-1 1 μg/ml): 183% | Dopamine uptake, Mean ± SEM ([2]; No K-252b, rhBDNF 200 ng/ml or des-IGF-1 1 μg/ml, n=4, 7 days): 28.0 ± 0.3 fmol/min/culture dish | trophic action on dopaminergic neurons (dopamine uptake) [2]: trophically acts
